Series [1] can be described thus: Ferric reducing antioxidant power (FRAP) assay. As to conditions: 4 min, pH 3.6. How it is done:
The FRAP assay was carried out as described in [41]. We prepared FRAP reagent by mixing 2.5 mL of TPTZ (2,4,6-tris(2-pyridyl)-s-triazine) solution (10 mM) in 40 mM HCl and […] of FeCl3 solution (20 mM) in acetate buffer solution (300 mM, pH 3.6). Then, we added stilbenes 1–6 to 3 mL of FRAP reagent at concentrations from 1 to 34 µM. The mixture was kept in the dark at room temperature for 4 min. Then, we measured the absorbance at 595 nm using a Shimadzu UV 1240 spectrophotometer. Equation (2) was used to calculate the FRAP values of stilbenes 1–6:(2) FRAP=CFe/Cx, where: • CFe is the concentration of Fe^2+ (µM) formed in the reaction; • Cx is the concentration of polyphenolic compounds in the reacting mixture.
The concentration of Fe^2+ (µM) formed in the reaction was determined using the calibration curve obtained for different concentrations of FeSO4·7H2O.

Series [2] deals with PQ-treated Neuro-2a cells. As to the kind of experiment: Mitochondrial membrane potential in PQ-treated cells (TMRM). The format is cell-based, murine. The note with it: 0.1 μM. How it is done:
[…] Then, we added PQ (500 μM) and kept the cell suspension in a CO2-incubator for 1 h. Cells incubated without PQ and stilbenes and with PQ only were used as positive and negative control, respectively. We added the tetramethylrhodamine methyl (TMRM) (Sigma-Aldrich, St. Louis, MO, USA) solution (500 nM) to each well and kept the cells for 30 min in a CO2-incubator at 37 °C. The intensity of fluorescence was measured with a PHERAstar […] reader (BMG Labtech, Ortenberg, Germany) at λex = 540 nm and λem = 590 nm. We processed the data by MARS Data Analysis v. 3.01R2 (BMG Labtech, Ortenberg, Germany) and presented the results as percentages of the positive control value.

Series [3] in a line: Cytotoxic activity against Neuro-2a cells (MTT assay). The class given is cell-based, murine. The note with it: mouse, Neuro-2a neuroblastoma cells, data not shown, read-out: EC50 of cell viability reduction (cytotoxic activity). The method, then:
We purchased the murine neuroblastoma cell line Neuro-2a (CCL-131) from the American Type Culture Collection (ATCC®) (Manassas, VA, USA). We cultured Neuro-2a cells in Dulbecco′s Modified Eagle Medium (Biolot, St. Petersburg, Russia), which contained 10% fetal bovine serum (Biolot, St. Petersburg, Russia) and 1% penicillin/streptomycin (Biolot, St. Petersburg, Russia). We incubated the cells at 37 °C in a humidified atmosphere containing 5% (v/v) CO2.
We prepared the stock solutions of stilbenes in DMSO at a concentration of 10 mM. Compounds 1–6 were added to the wells of the plates in a volume of 20 μL diluted in PBS at the following final concentrations: 0.1, 1.0, and 10.0 µM (final concentration of DMSO <1%).
Neuro-2a cells (1 × 10^4 cells/well) were kept in a CO2 incubator at 37 °C for 24 h until they formed an adherent monolayer. Then, 20 μL of stilbenes solution was added to the cells. After incubation for 24 h, the medium containing the stilbenes was replaced by 100 μL of fresh DMEM medium. Then, we added 10 μL of MTT (3-(4,5-dimethylthiazol-2-yl)-2,5-diphenyltetrazolium bromide) (Sigma-Aldrich, St. Louis, MO, USA) stock solution (5 mg/mL) to each well and incubated the microplate for 4 h. […] After incubation for 18 h, we measured the absorbance of the converted dye formazan on a Multiskan FC microplate photometer (Thermo Scientific, Waltham, MA, USA) at a wavelength of 570 nm. […]

Series [4] concerns PQ-treated Neuro-2a cells. Briefly: Intracellular ROS level in PQ-treated cells (H2DCF-DA). The class given is cell-based, murine. As to conditions: Mus musculus, N2a, 0.1 μM (minimum studied concentration), PQ 1 mM. The method, then:
After 24 h of adhesion, Neuro-2a cells (1 × 10^4 cells/well) were incubated with stilbenes (0.01–10 µM) for 1 h. After that, we added PQ (1 mM) to each well and incubated the cells for 3 h. To study ROS formation, we added 20 µL of 2,7-dichlorodihydrofluorescein diacetate solution ([…], H2DCF-DA, Molecular Probes, Eugene, OR, USA) to each well, so that the concentration was 10 µM, and kept the microplate in a CO2–incubator for additional 30 min at 37 °C.

Series [5] is described as follows: Cytotoxicity against Vero cells (MTT assay). As to conditions: African green monkey (Chlorocebus sp.). The format is cell-based. The method, then:
(§1) The HSV-1 strain L2 and Vero cell culture (kidney epithelial cells of the African green monkey Chlorocebus sp.) were obtained from the N.F. Gamaleya Federal Research Centre for Epidemiology and Microbiology (Moscow, Russia). HSV-1 was grown in Vero cells, using Dulbecco′s Modified Eagle′s Medium (DMEM, Biolot, St. Petersburg, Russia) supplemented with 10% fetal bovine serum (FBS, Biolot, St. Petersburg, Russia) and 100 U/mL of gentamycin (Dalkhimpharm, Khabarovsk, Russia), at 37 °C in a CO2 incubator. In the maintenance medium, the FBS concentration was decreased to 1%.
(§2) The tested compounds were dissolved in DMSO (Sigma, St. Louis, MO, USA) at a concentration 10 mg/mL and stored at −20 °C. For cytotoxicity and anti-HSV-1 activity determination, the stock solutions were diluted with DMEM so that the final concentration of DMSO was 0.5%.
The cytotoxicity evaluation of the studied compounds was performed using the MTT assay, as described previously. In brief, confluent Vero cells in 96-well microplates (1 × 10^4 cells/well) were incubated with tested compounds at various concentrations (1–500 μg/mL) at 37 °C for 48 h (5% CO2). Untreated cells were used as controls. Then, MTT solution (methylthiazolyltetrazolium bromide, Sigma, St. Louis, MO, USA) was added to cells at a concentration of 5 mg/mL and the cells were incubated at 37 °C for 2 h. After dissolution of formazan crystals, optical densities were read at 540 nm (Labsystems Multiskan RC, Vantaa, Finland). […] [42]. Experiments were performed in triplicate and repeated three times.
(In general: Formazan colour is commonly taken as a measure of viable cells.)

The next series relates to HSV-1. As to the kind of experiment: Anti-HSV-1 activity, cytopathic effect (CPE) inhibition assay in Vero cells. The class given is cell-based, HSV-1 strain L2. The method, then: as §1, §2
The anti-HSV-1 activity of stilbenes was evaluated using cytopathic effect (CPE) inhibition assay in Vero cells. We infected the monolayer of cells grown in 96-well plates (1 × 10^4 cells/well) with 100 µL/well of virus suspension (100 TCD50/mL) and we simultaneously treated it with stilbenes 1–6 (100 µL/well) at various concentrations (from 1 to 400 μg/mL) for one hour at 37 ◦C. After virus absorption, we removed the mixture of virus and stilbenes, washed the cells, and added the maintenance medium with 1% FBS. […] We used MTT assay to evaluate the antiviral activity of stilbenes. The viral inhibition rate (IR, %) was calculated according to Equation (3):(3) IR, %=Atv−Acv/Acd−Acv×100, where: • Atv is the absorbance of cells infected with virus and treated with a polyphenolic compound; • Acv is the absorbance of the untreated virus-infected cells; • Acd is the absorbance of control (untreated and non-infected) cells.
The selectivity index (SI) was calculated as the ratio of CC50 to IC50. Experiments were repeated three times.

Series [6] is described as follows: DPPH radical scavenging assay. As to conditions: 20 min. How it is done:
The DPPH (2,2-diphenyl-1-picrylhydrazyl) scavenging effect of polyphenolic compounds 1-6 from M. amurensis heartwood was evaluated as described previously in [40]. Stilbenes were added to DPPH solution in MeOH (10^−4 M) at a concentration range from 1 to 34 µM. The mixture was kept in the dark at room temperature for 20 min. Then, we measured the absorbance at 517 nm using a Shimadzu UV 1240 spectrophotometer (Shimadzu, Kyoto, Japan). The DPPH radical-scavenging effect (%) of the stilbenes was calculated using Equation (1): (1) DPPH scavenging effect, %=A0−Ax/A0×100, where: • A0 is the absorbance of DPPH solution without polyphenolic compounds (blank sample); • Ax is the absorbance of DPPH solution in the presence of different concentrations of polyphenolic compounds.
Quercetin and ascorbic acid were used as reference compounds. All experiments were performed in triplicate. The half maximal inhibitory concentration (IC50) for polyphenolic compounds was calculated by plotting the DPPH scavenging effect (%) against the concentrations of polyphenolic compounds. IC50 values are given as the mean ± SEM.

Several values for one entry are separate records, joined by “and”; a condition that tells them apart may be missing. Equal values may be shown once.

In general, EC50 refers to the concentration that produces a half-maximal response. A word on the inhibition: it is the drop in the measured response relative to a control, in per cent. One may read the CC50 as the concentration at which the toxic effect on the cells reaches its halfway point. As usually defined, the IC50 is the concentration needed to halve the response being measured. `Oc1cc(O)cc(/C=C/c2ccc3c(c2)O[C@H](c2cc(O)cc(O)c2)[C@@H](c2ccc(O)c(O)c2)O3)c1` [Compound 3, maackin]: in series [1], the “FRAP CFe2+(µM)/Cpolyphenolic compound (µM)” value is 10.11 ± 0.93 CFe2+(µM)/Cpolyphenolic compound (µM) and the “FRAP CFe2+(µM)/Cpolyphenolic compound (μkg/mL)” value is 20.80 ± 1.91 CFe2+(µM)/Cpolyphenolic compound (μkg/mL). Also, the “Increase of mitochondrial membrane potential compared to PQ-treated cells” value in series [2] is 16%. For the same molecule, in series [3], the EC50 at 24 h was 87.7 µM. In addition, the inhibition at 0.1 µM in series [4] turned out to be 17%. The CC50 at 48 h in series [5] was 270 µg/mL and 555 µM. Moreover, in the series on HSV-1 (Human alphaherpesvirus 1, Vero, read-out: IC50 (CPE assay)), the IC50 is 17.6 µg/mL and 36.2 µM. Further, in the series with HSV-1 (Vero cells, HSV-1), the “SI = CC50/IC50” value amounted to 15.3 ± 1.9. In addition, in series [6], the “DPPH Scavenging Effect IC50” value was found to be 1.31 ± 0.15 µg. Moreover, the IC50 in series [6] (read-out: DPPH Scavenging Effect IC50) came out at 2.7 ± 0.3 µM.

For the origin of these results see PMC10056899, “Neuroprotective and Antiherpetic Properties of Polyphenolic Compounds from Maackia amurensis Heartwood” (Molecules, 2023).
